# Results from patent US3960845A, “Process for preparing 7β-acylamino-7α-alkoxycephalosporins or 6β-acylamino-6α-alkoxypenicillins” (Sankyo Company Limited, priority 1974, dated 1976).
# Where two headings read alike, the source gives them in different places.
# Assays:
# Format in all cases: cell-based
# [1] = system: Staphylococcus aureus 209p; experiment: Minimal inhibitory concentration; conditions: for MIC: read-out: Minimal inhibitory concentration
# Text: (§1) Minimal inhibitory concentrations of various microorganisms mcg/ml
# 1 A Staphylococcus aureus 209p
# [2] = system: Staphylococcus aureus (CP and PC resistant); experiment: Minimal inhibitory concentration; conditions: I B: Staphylococcus aureus (CP and PC resistant)
# Text: as §1
# 1 B Staphylococcus aureus
# E. coli NIHJ = experiment: Minimal inhibitory concentration; conditions: II A: E. coli NIHJ; for MIC: Escherichia coli
# Text: as §1
# Proteus vulgaris = experiment: Minimal inhibitory concentration; conditions: for MIC: read-out: Minimal inhibitory concentration
# Text: as §1
# [3] = system: E. coli 609 (CER resistant); experiment: Minimal inhibitory concentration; conditions: for MIC: Escherichia coli, read-out: Minimal inhibitory concentration
# Text: as §1
# II B E. coli 609 (CER resistant)
# [4] = system: Shigella flexneri Komagome; experiment: Minimal inhibitory concentration; conditions: for MIC: read-out: Minimal inhibitory concentration
# Text: as §1
# III Shigella flexneri Komagome
# Klebsiella neumoniae 806 = experiment: Minimal inhibitory concentration
# Text: as §1
# IV A Klebsiella neumoniae 806
# [5] = system: Klebsiella neumoniae 846 (CER resistant); experiment: Minimal inhibitory concentration; conditions: IV B: Klebsiella neumoniae 846 (CER resistant)
# Text: as §1
# IV B Klebsiella neumoniae 846 (CER resistant)
# [6] = system: Salmonella enteritidis Gaertner; experiment: Minimal inhibitory concentration; conditions: for MIC: Salmonella enterica, read-out: Minimal inhibitory concentration
# Text: as §1
# VI Salmonella enteritidis Gaertner
# [7] = system: broad pathogenic microorganisms; experiment: antimicrobial activity; conditions: result in words
# [8] = I A: Staphylococcus aureus 209p
# [9] = II B: E. coli 609 (CER resistant)
# [10] = III: Shigella flexneri Komagome
# [11] = IV A: Klebsiella neumoniae 806, read-out: Minimal inhibitory concentration
# [12] = VI: Salmonella enteritidis Gaertner
SMILES,"MIC [1, 8]",MIC [2],MIC (E. coli NIHJ),MIC (Proteus vulgaris; V: Proteus vulgaris),"MIC [3, 9]","MIC [4, 10]",MIC (Klebsiella neumoniae 806; [11]),MIC [5],"MIC [6, 12]",antimicrobial activity against broad pathogenic microorganisms [7],further results
"CO[C@@]1(NC(=O)CSc2nncs2)C(=O)N2C(C(=O)O)=C(COC(C)=O)CS[C@@H]21 [7β-(1,3,4-thiadiazol-2-yl)thioacetamido-7α-methoxy-3-acetoxymethyl-3-cephem-4-carboxylic acid]",0.8 µg/mL,1.5 µg/mL,3.1 µg/mL,6.2 µg/mL,6.2 µg/mL,6.2 µg/mL,3.1 µg/mL,> 400 µg/mL,3.4 µg/mL,excellent antimicrobial activity,
CO[C@@]1(NC(=O)CSCC#N)C(=O)N2C(C(=O)O)=C(COC(N)=O)CS[C@@H]21 [7β-cyanomethylthioacetamido-7α-methoxy-3-carbamoyloxymethyl-3-cephem-4-carboxylic acid],0.8 µg/mL,1.5 µg/mL,1.5 µg/mL,6.2 µg/mL,0.8 µg/mL,3.1 µg/mL,0.4 µg/mL,> 400 µg/mL,0.4 µg/mL,excellent antimicrobial activity,
CO[C@@]1(NC(=O)CSc2ncc[nH]2)C(=O)N2C(C(=O)O)=C(COC(C)=O)CS[C@@H]21 [7β-(imidazol-2-yl)thioacetamido-7α-methoxy-3-acetoxymethyl-3-cephem-4-carboxylic acid],1.5 µg/mL,6.2 µg/mL,12.5 µg/mL,25 µg/mL,25 µg/mL,25 µg/mL,12.5 µg/mL,> 400 µg/mL,6.2 µg/mL,excellent antimicrobial activity,
CO[C@@]1(NC(=O)COc2ccon2)C(=O)N2C(C(=O)O)=C(CSc3nnnn3C)CS[C@@H]21 [7β-(3-isoxazolyloxy)acetamido-7α-methoxy-3-(1-methyl-1H-tetrazol-5-yl)thiomethyl-3-cephem-4-carboxylic acid],,,,,,,,,,excellent antimicrobial activity,"Minimal inhibitory concentration [1, 8]: 0.2 µg/mL; Minimal inhibitory concentration [2]: 0.8 µg/mL; Minimal inhibitory concentration (E. coli NIHJ): 3.1 µg/mL; Minimal inhibitory concentration (Proteus vulgaris; V: Proteus vulgaris): 6.2 µg/mL; Minimal inhibitory concentration [3, 9]: 3.1 µg/mL; Minimal inhibitory concentration [4, 10]: 3.1 µg/mL; Minimal inhibitory concentration (Klebsiella neumoniae 806; IV A: Klebsiella neumoniae 806): 3.1 µg/mL; Minimal inhibitory concentration [5]: > 400 µg/mL; Minimal inhibitory concentration [6, 12]: 1.5 µg/mL"
CO[C@@]1(NC(=O)CS(C)(=O)=O)C(=O)N2C(C(=O)O)=C(CSc3nnnn3C)CS[C@@H]21 [7β-methylsulfonylacetamido-7α-methoxy-3-(1-methyl-1H-tetrazole-5-yl)thiomethyl-3-cephem-4-carboxylic acid],0.8 µg/mL,3.1 µg/mL,1.5 µg/mL,12.5 µg/mL,1.5 µg/mL,1.5 µg/mL,0.8 µg/mL,400 µg/mL,0.4 µg/mL,excellent antimicrobial activity,
CO[C@@]1(NC(=O)CSc2ccon2)C(=O)N2C(C(=O)O)=C(COC(C)=O)CS[C@@H]21 [7β-(3-isoxazolyl)thioacetamido-7α-methoxy-3-acetoxymethyl-3-cephem-4-carboxylic acid],0.2 µg/mL,0.8 µg/mL,3.1 µg/mL,3.1 µg/mL,6.2 µg/mL,6.2 µg/mL,3.1 µg/mL,> 400 µg/mL,1.5 µg/mL,excellent antimicrobial activity,
CO[C@@]1(NC(=O)COc2ccon2)C(=O)N2C(C(=O)O)=C(COC(C)=O)CS[C@@H]21 [7β-(3-isoxazolyloxy)acetamido-7α-methoxy-3-acetoxymethyl-3-cephem-4-carboxylic acid],≤ 0.1 µg/mL,0.8 µg/mL,6.2 µg/mL,,6.2 µg/mL,12.5 µg/mL,6.2 µg/mL,> 400 µg/mL,3.1 µg/mL,excellent antimicrobial activity,MIC (Proteus vulgaris; Proteus vulgaris): 12.5 µg/mL
C#CCSCC(=O)N[C@]1(OC)C(=O)N2C(C(=O)O)=C(COC(N)=O)CS[C@@H]21 [7β-propargylthioacetamido-7α-methoxy-3-carbamoyloxymethyl-3-cephem-4-carboxylic acid],0.8 µg/mL,1.5 µg/mL,3.1 µg/mL,6.2 µg/mL,3.1 µg/mL,,3.1 µg/mL,> 400 µg/mL,1.5 µg/mL,excellent antimicrobial activity,MIC ([4]; Shigella flexneri): 6.2 µg/mL
CO[C@@]1(NC(=O)CSCN=[N+]=[N-])C(=O)N2C(C(=O)O)=C(COC(C)=O)CS[C@@H]21 [7β-azidomethylthioacetamido-7α-methoxy-3-acetoxymethyl-3-cephem-4-carboxylic acid],0.4 µg/mL,0.8 µg/mL,6.2 µg/mL,3.1 µg/mL,6.2 µg/mL,6.2 µg/mL,6.2 µg/mL,> 200 µg/mL,1.5 µg/mL,excellent antimicrobial activity,
C#CCSCC(=O)N[C@]1(OC)C(=O)N2C(C(=O)O)=C(COC(C)=O)CS[C@@H]21 [7β-propargylthioacetamido-7α-methoxy-3-acetoxymethyl-3-cephem-4-carboxylic acid],0.8 µg/mL,3.1 µg/mL,3.1 µg/mL,6.2 µg/mL,6.2 µg/mL,6.2 µg/mL,6.2 µg/mL,> 400 µg/mL,1.5 µg/mL,excellent antimicrobial activity,
"CO[C@@]1(NC(=O)CSc2nnc[nH]2)C(=O)N2C(C(=O)O)=C(COC(N)=O)CS[C@@H]21 [7β-(1,2,4-triazol-4H-3-yl)thioacetamido-7α-methoxy-3-carbamoyloxymethyl-3-cephem-4-carboxylic acid]",1.5 µg/mL,6.2 µg/mL,6.2 µg/mL,25 µg/mL,,12.5 µg/mL,6.2 µg/mL,> 400 µg/mL,6.2 µg/mL,excellent antimicrobial activity,MIC [3]: 12.5 µg/mL
CO[C@@]1(NC(=O)CSc2ncc[nH]2)C(=O)N2C(C(=O)O)=C(CSc3nnnn3C)CS[C@@H]21 [7β-(imidazol-2-yl)thioacetamido-7α-methoxy-3-(1-methyl-1H-tetrazol-5-yl)thiomethyl-3-cephem-4-carboxylic acid],0.8 µg/mL,3.1 µg/mL,6.2 µg/mL,12.5 µg/mL,6.2 µg/mL,6.2 µg/mL,6.2 µg/mL,> 200 µg/mL,3.1 µg/mL,excellent antimicrobial activity,
C#CCSCC(=O)N[C@]1(OC)C(=O)N2C(C(=O)O)=C(CSc3nnnn3C)CS[C@@H]21 [7β-propargylthioacetamido-7α-methoxy-3-(1-methyl-1H-tetrazol-5-yl)thiomethyl-3-cephem-4-carboxylic acid],0.2 µg/mL,0.8 µg/mL,3.1 µg/mL,3.1 µg/mL,3.1 µg/mL,3.1 µg/mL,3.1 µg/mL,400 µg/mL,0.8 µg/mL,excellent antimicrobial activity,
"CO[C@@]1(NC(=O)CSc2nnc(C)s2)C(=O)N2C(C(=O)O)=C(COC(N)=O)CS[C@@H]21 [7β-(5-methyl-1,3,4-thiadiazol-2-yl)thioacetamido-7α-methoxy-3-carbamoyloxymethyl-3-cephem-4-carboxylic acid]",0.8 µg/mL,3.1 µg/mL,6.2 µg/mL,6.2 µg/mL,6.2 µg/mL,12.5 µg/mL,6.2 µg/mL,> 200 µg/mL,3.1 µg/mL,excellent antimicrobial activity,
CO[C@@]1(NC(=O)CSCC#N)C(=O)N2C(C(=O)O)=C(COC(C)=O)CS[C@@H]21 [7β-cyanomethylthioacetamido-7α-methoxy-3-acetoxymethyl-3-cephem-4-carboxylic acid],0.2 µg/mL,0.8 µg/mL,1.5 µg/mL,6.2 µg/mL,1.5 µg/mL,3.1 µg/mL,1.5 µg/mL,> 400 µg/mL,0.8 µg/mL,excellent antimicrobial activity,
CO[C@@]1(NC(=O)CSCC#N)C(=O)N2C(C(=O)O)=C(CSc3nnnn3C)CS[C@@H]21 [7β-cyanomethylthioacetamido-7α-methoxy-3-(1-methyl-1H-tetrazol-5-yl)thiomethyl-3-cephem-4-carboxylic acid],,0.8 µg/mL,,,0.8 µg/mL,0.8 µg/mL,,> 200 µg/mL,,excellent antimicrobial activity,"MIC ([1]; Staphylococcus aureus, 209P): 0.2 µg/mL; MIC (Proteus vulgaris; Proteus vulgaris): 1.5 µg/mL; MIC (Klebsiella neumoniae 806; Klebsiella, 806, read-out: Minimal inhibitory concentration): 0.8 µg/mL; MIC ([6]; ENTERITIDIS): 0.2 µg/mL"
